Reference: article PMC3606118, “Salvianolic Acid A, a Novel Matrix Metalloproteinase-9 Inhibitor, Prevents Cardiac Remodeling in Spontaneously Hypertensive Rats” (PLoS ONE, 2013)
Like-named read-outs stand apart in the source and are kept apart here.

Key:
[1] = system: neonatal cardiac fibroblast; assay: CCK-8 proliferation of neonatal cardiac fibroblast; assay type: cell-based, Wistar rats; conditions: 10 µmol/L SalA with MMP-9 CD, 24 h
Protocol: (§1) Primary cardiac fibroblast was obtained from neonatal rats and National Institutes of Health (NIH) Guide for the Care and Use of Laboratory Animals was followed throughout. Wistar rats (2–4 day old) were sacrificed by cervical dislocation; ventricles were minced and digested with 0.1% trypsin at 37°C for 8 min. The liberated cells were collected by centrifugations; non-digested chunk materials were further digested in 0.1% trypsin for an additional 8 min. This digestion procedure was repeated 3–4 times. All the liberated cells were pelleted by centrifugation at 1,000 rpm for 10 min, re-suspended in DMEM containing 10% fetal bovine serum (FBS), and cultured in a 100-mm noncoated culture flask at 37°C with 5% CO2 for 2 h. Adherent cardiac fibroblasts were collected and maintained in DMEM supplemented with 10% FBS, 100 U/mL penicillin, 100 µg/mL streptomycin [12]. Cardiac fibroblasts were treated by vehicle (Con); 200 nmol/L MMP-9 CD (MMP-9); 200 nmol/L MMP-9 CD plus 1 µmol/L SalA [MMP-9/SalA(1)]; or 200 nmol/L MMP-9 CD plus 10 µmol/L SalA [MMP-9/SalA(10)] for the following research. All the detections were conducted after 24 h treatment.
Cell proliferation assay was performed using Cell Counting Kit (CCK-8 kit, Dojindo Laboratory, Japan) as described previously. Absorbance was detected at 450 nm (reference 650 nm) using a microplate reader (Tecan GENios, Austria).

[2] = system: neonatal cardiac fibroblast; assay: Multiplex cytokine assay (Procarta) in cardiac fibroblast supernatants; assay type: cell-based, Wistar rats; conditions: 1 or 10 µmol/L SalA, 24 h
Protocol: as §1
Procarta cytokine profiling kit (Panomics, CA, USA) was used to simultaneously detect 3 different rat cytokines in the cell culture supernatants, according to manufacturer’s instruction. Briefly, 50 µL antibody beads were added to each well of the Filter plate, washed with Wash buffer. Fifty microliter cell culture supernatant was then added to each well, incubated for at least 1 h at room temperature, and washed with Wash buffer. Afterwards, 25 µL per well of the Detection Antibody was added and the Filter plate was shaken at 500 rpm for 30 min at room temperature. After adding Sreptavidin-PE, the signals were detected using a Luminex 200 instrument (Bio-Rad, CA, USA). The cytokines included in the present study were intercellular adhesion molecule (ICAM), interleukin-6 (IL-6), tumor necrosis factor-α (TNF-α and soluble vascular cell adhesion molecule-1 (sVCAM-1).

MMP-9 = molecular target: T1, MMP-9 (Rattus norvegicus, UniProt P50282); assay: In-gel gelatin zymography of SHR heart, MMP-9; assay type: in vivo, SHR rats; conditions: SalA i.p. everyday for 4 weeks
T1 construct: twenty µg protein from tissue; from tissue; host or cells: heart of spontaneously hypertensive rats (SHR)
T1 sequence (P50282 108-708): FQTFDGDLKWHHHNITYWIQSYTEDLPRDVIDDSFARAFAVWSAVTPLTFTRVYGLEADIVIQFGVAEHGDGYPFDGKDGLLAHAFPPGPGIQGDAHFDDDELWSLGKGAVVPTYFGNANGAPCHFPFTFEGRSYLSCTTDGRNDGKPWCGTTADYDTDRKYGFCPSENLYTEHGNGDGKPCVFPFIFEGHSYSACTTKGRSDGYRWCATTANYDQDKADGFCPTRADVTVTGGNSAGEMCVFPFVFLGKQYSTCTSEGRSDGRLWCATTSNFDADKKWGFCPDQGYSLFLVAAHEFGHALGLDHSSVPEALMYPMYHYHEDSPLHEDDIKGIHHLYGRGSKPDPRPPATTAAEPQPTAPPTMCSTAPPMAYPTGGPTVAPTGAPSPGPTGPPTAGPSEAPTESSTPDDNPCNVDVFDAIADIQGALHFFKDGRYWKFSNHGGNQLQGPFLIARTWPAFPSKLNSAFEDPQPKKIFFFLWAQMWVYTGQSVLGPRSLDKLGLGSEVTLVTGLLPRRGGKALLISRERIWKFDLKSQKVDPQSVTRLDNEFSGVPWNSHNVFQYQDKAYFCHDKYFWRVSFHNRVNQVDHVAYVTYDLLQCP
Protocol: The enzymatic activities of H9c2 cells or tissue samples were detected by in-gel gelatin zymography. In brief, twenty µg protein from tissue or twenty microliter culture supernatant of H9c2 cells with different treatments was electrophoresed in 10% SDS-PAGE containing 1% gelatin as MMP substrate under non-reducing conditions. After electrophoresis, the gel was washed in 1% Triton X-100 for 1 h, rinsed in water, and incubated overnight in substrate buffer containing 50 mmol/L Tris-HCl, 5 mmol/L CaCl2, and 150 mmol/L NaCl (pH 7.5) at 37°C with gentle shaking. Then, the gel was stained in 0.1% Coomassie Blue R-250 and destained using 10% methanol, 5% acetic acid solution. The gel was scanned using a MiniBis system (DNR Bio-Imaging Systems Ltd) and the detected protein species corresponding to the expected molecular weight of MMP-9 was visualized.
(§2) 2-month old male SHR rats were given rodent chow containing 8% NaCl 4 weeks before SaA treatment to the end of the experiment. Rats were divided into four groups (20 per group) and were injected intraperitoneally with saline or SalA everyday at the indicated dose for 4 weeks. The four groups were named as SalA (0 mg/kg), SalA (2.5 mg/kg), SalA (5 mg/kg), SalA (10 mg/kg) basing on the dose of SalA, respectively.

MMP-2 = molecular target: T2, MMP-2 (Rattus norvegicus, UniProt P33436); assay: In-gel gelatin zymography of SHR heart, MMP-2; assay type: in vivo, SHR rats; conditions: SalA i.p. everyday for 4 weeks
T2 construct: twenty µg protein from tissue; from tissue; host or cells: heart of spontaneously hypertensive rats (SHR)
T2 sequence (P33436 110-662): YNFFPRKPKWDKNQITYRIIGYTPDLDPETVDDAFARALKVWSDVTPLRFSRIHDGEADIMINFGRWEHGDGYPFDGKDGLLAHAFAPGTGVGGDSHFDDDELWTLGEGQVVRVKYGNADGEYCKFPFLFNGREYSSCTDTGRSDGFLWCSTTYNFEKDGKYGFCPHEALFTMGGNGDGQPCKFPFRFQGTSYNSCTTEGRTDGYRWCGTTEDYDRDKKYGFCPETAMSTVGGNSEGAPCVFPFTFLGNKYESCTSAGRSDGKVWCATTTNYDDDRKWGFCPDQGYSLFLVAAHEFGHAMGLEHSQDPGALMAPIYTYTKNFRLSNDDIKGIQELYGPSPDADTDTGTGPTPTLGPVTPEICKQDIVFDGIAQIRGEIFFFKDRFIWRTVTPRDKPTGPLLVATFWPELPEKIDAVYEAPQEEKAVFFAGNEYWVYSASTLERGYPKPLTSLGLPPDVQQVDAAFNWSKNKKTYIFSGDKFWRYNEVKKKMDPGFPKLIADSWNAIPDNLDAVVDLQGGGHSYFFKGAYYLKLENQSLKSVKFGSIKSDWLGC

[3] = system: spontaneously hypertensive rats (SHR); assay type: in vivo; conditions: for HW/BW (heart weight divided by body weight): 0 mg 4.37±0.08; for collagen volume fraction: 0 mg/kg 4.61±0.31
Protocol: as §2
(§3) After ketamine-xylazine anesthesia (ketamine: xylazine, 60∶5 mg/kg, intramuscularly), heart, liver and kidney samples from experimental animals were fixed with 4% neutral-buffered paraformaldehyde for 24 h. Specimens were paraffin-embedded, sliced at 5 µm, and stained with haematoxylin and eosin. After staining, the sections were rinsed with distilled water, dehydrated, and mounted with Permount. Photomicrographs were taken using an Olympus BX51 microscope plus Olympus DP71 CCD camera (Olympus Corporation). Software Image-Pro Plus version 6.0 was used and approximately 150 cells per heart were measured to determine the average myocyte circumference. Paraffin-embedded slices were also stained with 0.1% picric sirius red (Sigma-Aldrich Inc, St Louis, USA) for fibrillar collagen. Collagen volume fraction (CVF) was expressed as a percentage of the total area of the field occupied by collagen staining.

[4] = Toxicological evaluation of SalA on SHR; assay type: in vivo, SHR rats
Protocol: as §2, §3

[5] = 2.5 mg/kg i.p. everyday 4 weeks

SMILES: O=C(/C=C/c1ccc(O)c(O)c1/C=C/c1ccc(O)c(O)c1)O[C@H](Cc1ccc(O)c(O)c1)C(=O)O [SalA, salvianolic acid A]
- proliferation of neonatal cardiac fibroblast [1]: considerable promotion
- ICAM secretion induced by MMP-9 CD [2]: inhibition
- IL-6 secretion induced by MMP-9 CD [2]: inhibition
- TNF-α secretion induced by MMP-9CD [2]: No significant inhibitory effect
- sVCAM-1 secretion induced by MMP-9 CD [2]: inhibition
- MMP-9 activity in heart of SHRs (MMP-9): inhibited by SalA significantly
- MMP-2 activity in heart of SHRs (MMP-2): no regulation
- HW/BW (heart weight divided by body weight) [3, 5]: 4.36 ± 0.05 mg/g
- collagen volume fraction [3, 5]: 4.48±0.29%
- HW/BW (heart weight divided by body weight) ([3]; 5 mg/kg i.p. everyday 4 weeks): 4.37 ± 0.08 mg/g
- collagen volume fraction ([3]; 5 mg/kg i.p. everyday 4 weeks): 3.04±0.16%
- HW/BW (heart weight divided by body weight) ([3]; 10 mg/kg i.p. everyday 4 weeks, p<0.05): 4.10 ± 0.08 mg/g
- collagen volume fraction ([3]; 10 mg/kg i.p. everyday 4 weeks): 2.58±0.17%
- cardiomyocyte size (myocyte circumference) ([3]; SalA treatment versus SHR, p<0.001): significantly down-regulated
- signs of toxicity or mortality ([4]; intraperitoneally administered to rats for 1 month): failed to induce any signs of toxicity or mortality
- body weight, food consumption ([4]; rat, in vivo, 10 mg/kg): no changes
